Assay results as given in PubChem BioAssay AID179 (DTP/NCI, 2004).
Calls of active or inactive are those of the source.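 The calls were made as follows: active = compounds giving half or more protection of infected cells from virus-caused growth loss, again on retest; inactive = the rest.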

System: CEM cells HIV-1 protection, formazan growth assay
Experiment: NCI AIDS Antiviral Assay
Conditions: for IC50: measured here: growth of uninfected CEM cells
In short: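 Five concentrations of each compound were applied to infected and uninfected human CEM cells. Protection from HIV-1 was judged from growth measured with a soluble formazan assay.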

Row | SMILES | EC50 [µM] | IC50 [µM] | outcome
1 | O=C1C2CC3OC3CC2C(=O)N1CCN1C(=O)C2CC3OC3CC2C1=O (configuration not stated) | > 10.5 | > 10.5 | 
2 | C/C(=N\NC(=O)C[n+]1ccccc1)c1sc(-c2nc(C)c(/C(C)=N/NC(=O)C[n+]3ccccc3)s2)nc1C | > 30.2 | > 30.2 | 
3 | CC1=C2C(=CO[C@H](C)[C@H]2C)C(=O)C(C(=O)O)=C1O | > 145 | 25.1 | 
4 | CN1c2ccccc2C2=C(c3ccccc3)CC[C@@H](C(=O)N3C4CC5CC[C@@]4(CS3(=O)=O)C5(C)C)[C@@H]21 (some centres not stated) | > 200 | 129 | 
5 | COc1c(O)c2ccccc2c2cc(O)ccc12 | > 1050 | 5.25 | 
6 | COc1ccc(-c2cc(-c3cc(OC)c(OC)c(OC)c3)cc(-c3cc4ccccc4oc3=O)n2)cc1 | > 200 | 155 | 
7 | CC(C)(C)[Si](C)(C)OCC1OC(n2ccc(=O)[nH]c2=O)C/C1=N/O (configuration not stated) | > 200 | 74.1 | 
8 | O=C1OCCC1C(O)C1c2ccccc2-c2ccccc21 (configuration not stated) | > 339 | > 339 | 
9 | C[N+]1(Cc2ccco2)CCCCC1 | > 813 | > 813 | 
10 | CC1=NN(c2ccccc2)C(=O)C1N=Nc1ccc(Br)c(C)c1 (configuration not stated) |  |  | inactive
11 | CCOC(=O)CC1CN(Cc2ccccc2)CCC1=O (configuration not stated) |  |  | inactive
12 | O=CCCCC(Sc1ccccc1)Sc1ccccc1 |  |  | inactive
13 | CS(=O)(=O)Sc1ccccc1C(=O)O | > 1070 | > 1070 | 
14 | CCOC(C(=O)N(C)CCN(C)CCc1ccccc1)(c1ccccc1)c1ccccc1 | > 200 | 37.2 | 
15 | C=Cc1c(Cl)nc(C)c(C)c1-c1ccc(OC)c(OC)c1OCc1ccccc1 | > 200 | 25.1 | 
16 | O=C(O)c1ccccc1-c1c2ccc(=O)c(Cl)c-2oc2c(Cl)c(O)ccc12 | 17.8 | 56.2 | 
17 | COc1cc2cnc3c4cc(OS(=O)(=O)c5ccccc5)ccc4ccc3c2cc1OC | > 14.5 | > 14.5 | 
18 | CCCC(CC)C(C(=O)OCC)C1=NC(C)(C)CC(C)O1 (configuration not stated) | > 200 | > 200 | 
19 | CC(C)(C)OC(=O)N1N=NC2C3CC(=O)C(O3)C21 (configuration not stated) | > 977 | 11 | 
20 | CC(=O)/C(=C/n1c(=S)[nH]c2ccccc21)C(=O)Nc1ccc([N+](=O)[O-])cc1 | > 200 | 105 | 
21 | COc1cc(/C=C2\N=C(c3ccccc3)OC2=O)cc(OC)c1OC | > 21.4 | > 21.4 | 
22 | O=C(SC1=NCCN1)c1cccc2ccccc12 | > 200 | 28.8 | 

Row | SMILES | EC50 [µM] | IC50 [µM] | outcome
23 | CCOC(=O)CCNC(=O)c1ccccc1SC(=O)CCCC[n+]1ccccc1 | > 2 | 1.51 | 
24 | CC(C)[C@@H]1CC[C@]2(COC(=O)CC3(CC(=O)O)CCCC3)CC[C@]3(C)[C@H](CC[C@@H]4[C@@]5(C)CC[C@H](OC(=O)CC6(CC(=O)O)CCCC6)C(C)(C)[C@@H]5CC[C@]43C)[C@@H]12 | > 200 | 6.46 | 
25 | CCOC(=O)N1CCC2(CC1)CC(=O)N(Nc1ccccc1)C2=O | > 200 | 36.3 | 
26 | CN1C(=O)c2ccccc2Cc2c(Cl)ncnc21 | > 200 | 34.7 | 
27 | C(/C=N/NC1=NCCN1)=N\NC1=NCCN1 | > 200 | > 200 | 
28 | Cc1ccccc1-n1c(=O)c2ncn(CCCl)c2n(-c2ccccc2C)c1=S | > 200 | 102 | 
29 | CCN(CC)C(=S)N/N=C(/C)c1cccc(/C(C)=N\NC(=S)N(CC)CC)n1 | > 200 | 6.31 | 
30 | C1=NCCNCCN=Cc2ccccc2OCc2cccc(n2)COc2ccccc21 | > 200 | 10.7 | 
31 | OCC(O)C(O)C(O)c1nn(-c2ccc(Cl)cc2)c2nc3cc(Cl)c(Cl)cc3nc12 (configuration not stated) |  |  | inactive
32 | CNC=O | > 200 | > 200 | 
33 | CCOC(=O)c1ccccc1-c1c2cc(Br)c(=O)c(Br)c-2oc2c(Br)c(O)c(Br)cc12 | > 200 | 12 | 
34 | Oc1ccccc1-n1nc2ccc3nonc3c2n1 | > 200 | > 200 | 
35 | Cc1cn(C(CCO)CCO)c(=O)[nH]c1=O | > 200 | > 200 | 
36 | COC1=CC(=O)C(O)=C(C[C@@]2(C)C3CCCC(C)(C)C3=CC[C@@H]2C)C1=O (some centres not stated) | > 363 | 19.5 | 
37 | O=C(N/N=C/c1ccc(Cl)cc1)c1ccccc1Nc1ccccc1C(=O)N/N=C/c1ccc(Cl)cc1 | 55 | > 200 | 
38 | COc1ccc(/C=C2\CN(C)C/C(=C\c3ccc(OC)cc3)C2=O)cc1 | > 200 | 85.1 | 
39 | CCOC(=O)C1(C#N)CC1 |  |  | inactive
40 | O=C(Cn1c(=O)oc2ccc(C(=O)c3ccc(F)cc3)cc21)c1ccc([N+](=O)[O-])cc1 | > 200 | 25.1 | 
41 | COC1=C(NC(C)=O)C(=O)c2nc3n(c2C1=O)CCC3 | > 200 | 75.9 | 
42 | N#Cc1c(N2CCCC2)nsc1Nc1ccc(F)cc1 | > 200 | > 200 | 
43 | Cc1nc2c(=O)n(-c3ccccc3)c3ccccc3c2o1 | > 200 | 145 | 
44 | CSCCC(NC(=O)Cc1ccc(C(=O)c2ccccc2)cc1)C(=O)O (configuration not stated) | > 200 | > 200 | 

Row | SMILES | EC50 [µM] | IC50 [µM] | outcome
45 | CCOC(=O)/C(C)=C(/O)C(=O)OCC | 214 | 1120 | 
46 | O=c1[nH]cc(NS(=O)(=O)O)c(=O)[nH]1 | > 200 | > 200 | 
47 | O=c1cc(N2CCOCC2)n2c(ccc3ccccc32)n1 | > 200 | 186 | 
48 | CCCc1cc(=O)oc2c3c(cc(OC(C)COC)c12)O[C@H](C)[C@@H](C)C3=O (some centres not stated) | > 77.6 | 13.8 | 
49 | Nc1ncnc2c1ncn2C1CCC(CP(=O)(O)O)C1 (configuration not stated) | > 200 | > 200 | 
50 | CCC(CCl)NC(=O)Nc1ccc(S(=O)(=O)c2ccc([N+](=O)[O-])cc2)cc1 (configuration not stated) | > 11 | 8.71 | 
51 | Cc1cc2cc(O)c3c(=O)c4c(O)cccc4c(=O)c3c2c(=O)c1=O | > 21.4 | 12 | 
52 | Cc1nonc1C(=O)NN | > 631 | > 631 | 
53 | C/C(N=NC(=S)N1CC2CCC(CC2)C1)=C1\C=CC=CN1O | > 158 | 1.86 | 
54 | CC1(C)OCC(CO)(CO)CO1 | > 1410 | > 1410 | 
55 | CCOC(=O)c1c(SC(=O)/C=C/c2ccccc2)n(-c2ccccc2)c(=S)n(-c2ccccc2)c1=O | > 200 | 79.4 | 
56 | CC(=O)OC(/C=C/c1ccccc1)=C(OC(C)C)/C1=C(\c2ccccc2)SCCCSC1=O | > 200 | > 200 | 
57 | COC(=O)/C(=N\NC(N)=O)C(C(=O)C(=O)Nc1ccccc1OC)c1nc2ccc([N+](=O)[O-])cc2[nH]c1=O (configuration not stated) | > 479 | 229 | 
58 | O=c1[nH]cnc2c1C(c1ccccc1)c1ccccc1-2 (configuration not stated) | > 38 | > 38 | 
59 | O=c1[nH]c2cc([N+](=O)[O-])ccc2nc1/C(=N/Nc1ccccc1)C(O)c1ccco1 (configuration not stated) | > 234 | 89.1 | 
60 | Cc1nc2ccccc2c(=O)n1CC(=O)O |  |  | inactive
61 | CCNC1CC(C(C)(C)NCC)CC=C1C (configuration not stated) | > 224 | > 224 | 
62 | O=C(N/C(=C\c1ccc(Cl)cc1)c1nc2ccccc2[nH]1)c1ccccc1 | > 69.2 | 58.9 | 
63 | CC1=CC=NN2C(=O)[C@H](C)C2C1 (some centres not stated) | > 1510 | > 1510 | 
64 | O=C(O)CCCc1ccc(N(CCCl)OCCCl)cc1 | > 200 | 21.9 | 
65 | Nc1nc(NNc2ccc(Cl)c(Cl)c2)cc(=O)[nH]1 | > 200 | 49 | 
66 | O=C1/C(=C/c2ccc(F)cc2)CNC/C1=C\c1ccc(F)cc1 | > 15.1 | 0.288 | 

Row | SMILES | EC50 [µM] | IC50 [µM] | outcome
67 | O=C(NCCCCCCNC(=O)NS(=O)(=O)c1ccccc1)NS(=O)(=O)c1ccccc1 | > 200 | > 200 | 
68 | Clc1ccccc1CN1COc2c(ccc3cccnc23)C1 | > 30.9 | 1.58 | 
69 | Cc1cccc(Nc2c3c(nc4ccccc24)CCCCC3)c1 |  |  | inactive
70 | Cc1ccc2ccc3c(-c4ccccc4)cc(C)nc3c2n1.Cc1ccc2ccc3c(-c4ccccc4)cc(C)nc3c2n1.O=C1OC(C(O)C[O-])C(O)=C1O.[Cu+] | > 12.6 | 0.55 | 
71 | S=C(N/N=C\C(=N/NC(=S)N1CCCCC1)c1ccccc1)N1CCCCC1 | > 200 | 3.8 | 
72 | COC(=O)c1ccccc1NC(=O)C(=O)CC(=O)CC(c1ccccc1)c1c(O)c2ccccc2oc1=O (configuration not stated) | > 490 | 245 | 
73 | O=C(NC(=O)c1c(F)cccc1F)Nc1ncc(Cl)cc1Cl | > 200 | > 200 | 
74 | COc1ccccc1N/N=c1\c2nc3ccccc3nc1n(-c1ccccc1C)c(=S)n2-c1ccc(Cl)cc1 | > 200 | 178 | 
75 | Clc1ccc(/C=N\N2CCCCCC2)cc1Cl | > 200 | 35.5 | 
76 | COc1ccc2nc3cc(Cl)ccc3c(NCCCN(C)CCCNc3ccc4ncn5c6ccccc6c(=O)c3c45)c2c1 | > 0.251 | 0.166 | 
77 | Nc1nonc1-c1noc(-c2nonc2N)[n+]1[O-] | > 200 | 12.3 | 
78 | O=C(O)c1ccc([N+](=O)[O-])c2c(=O)c3ccccc3[nH]c12 |  |  | inactive
79 | C/C(=N\NS(=O)(=O)c1ccc(C)cc1)C(CN1CCCCC1)C(c1ccccc1)c1c(O)c2ccccc2oc1=O (configuration not stated) | > 58.9 | 49 | 
80 | Oc1ccccc1C=NCc1ccco1 |  |  | inactive
81 | O=S(=O)(/N=C1/SC(=Nc2ccccc2)N(c2ccccc2)/C1=N/S(=O)(=O)c1ccccc1)c1ccccc1 | > 200 | 2.82 | 
82 | CN(C)P(=O)(OP(=O)(N(C)C)N(C)C)N(C)C | > 200 | > 200 | 
83 | CC(C)(O)[C@@H]1CCC(C)([C@H]2[C@@H](O)CC3(C)C4CC(OC5OC(CO)C(O)C(O)C5O)C5C(C)(C)[C@@H](OC6OCC(O)C(O)C6O)CC[C@@]56C[C@@]46CC[C@]23C)O1 (some centres not stated) | > 120 | > 120 | 
84 | COC(=O)C(=O)C(C(=O)C(=O)Nc1ccc([N+](=O)[O-])cc1C#N)c1nc2ccc([N+](=O)[O-])cc2[nH]c1=O (configuration not stated) | > 490 | 209 | 
85 | N#Cc1c(N)oc(-c2ccccc2)c1-c1ccccc1 |  |  | inactive
86 | Cc1cc2c(C(C)C)c(O)c(O)c(C=Nc3ccc4ccccc4c3)c2c(O)c1-c1c(C)cc2c(C(C)C)c(O)c(O)c(C=Nc3ccc4ccccc4c3)c2c1O | 10.7 | 22.9 | 
